What is called inhibition is the drop in the measured response relative to a control, in per cent.

AM2 S31 (wild-type serine at position 31 in the M2 protein), influenza virus A/Udorn/72, sequence (P0DOF5 whole entry, looked up): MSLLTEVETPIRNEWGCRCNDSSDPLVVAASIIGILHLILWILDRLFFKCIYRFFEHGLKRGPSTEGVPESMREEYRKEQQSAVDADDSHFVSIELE

One experiment has as its target AM2 S31 (wild-type serine at position 31 in the M2 protein), influenza virus A/Udorn/72 (Influenza A virus, UniProt P0DOF5). Kind of experiment: cell-based. The following applies: 100 uM; Xenopus oocytes; activity range class.
Take `F[B-](F)(F)c1ccc(CNC23CC4CC(CC(C4)C2)C3)cc1.[K+]` [Example 2a]: the “S31 OOcyte Inhibition at 100 uM (%)” value is reported as “A ((A)=31-95%)”.

Still in this experiment, the particulars now being: 100 uM; Xenopus oocytes; activity range class; read-out: S31 OOcyte Inhibition at 100 uM (%).
Regarding `CCOc1ccc(CNC23CC4CC(CC(C4)C2)C3)cc1` [Example 1a, Adamantan-1-yl-(4-ethoxy-benzyl)-amine], the inhibition at 100 µM lay in the range of 0 to 30%.
For `Brc1cccc(CNC23CC4CC(CC(C4)C2)C3)c1` [Example 3a, N-(3-Bromobenzyl)adamantan-1-amine], the inhibition at 100 µM lay in the range of 31 to 95%.
For the compound `FC(F)(F)Oc1ccc(CNC23CC4CC(CC(C4)C2)C3)cc1` [Example 4a, Adamantan-1-yl-(4-trifluoromethoxy-benzyl)-amine], the inhibition at 100 µM fell in the range of 0 to 30%.
The same measure, in the same setting: then `FC(F)(F)c1ccc(CNC23CC4CC(CC(C4)C2)C3)cc1` [Example 5a, Adamantan-1-yl-(4-trifluoromethyl-benzyl)-amine], with 0 to 30%; and `C[Si](C)(C)c1ccc(CNC23CC4CC(CC(C4)C2)C3)cc1` [Example 6a, Adamantan-1-yl-(4-trimethylsilanyl-benzyl)-amine], with 0 to 30%; and `CC(C)(C)c1ccc(CNC23CC4CC(CC(C4)C2)C3)cc1` [Example 7a, N-(4-(tert-Butyl)benzyl)adamantan-1-amine methanesulfonate], with 0 to 30%.
With `Cc1ccc(CNC23CC4CC(CC(C4)C2)C3)cc1` [Example 8a, N-(4-Methylbenzyl)adamantan-1-amine], the inhibition at 100 µM fell in the range of 31 to 95%.
As to `c1cc(C2CC2)ccc1CNC12CC3CC(CC(C3)C1)C2` [Example 9a, N-(4-Cyclopropylbenzyl)adamantan-1-amine], the inhibition at 100 µM was in the range of 31 to 95%.
The same measure, in the same setting: then `c1cc(C2CCCCC2)ccc1CNC12CC3CC(CC(C3)C1)C2` [Example 10a, Adamantan-1-yl-(4-cyclohexyl-benzyl)-amine], with 0 to 30%; and `COc1ccc(C(C)NC23CC4CC(CC(C4)C2)C3)cc1` (centres unmarked) [Example 11a, N-(1-(4-methoxyphenyl)ethyl)adamantan-1-amine], with 31 to 95%; and `CCSc1ccc(CNC23CC4CC(CC(C4)C2)C3)cc1` [Example 12a, N-(4-(ethylthio)benzyl)adamantan-1-amine], with 0 to 30%.
On the same count and under the same terms, then `c1ccc(Oc2ccc(CNC34CC5CC(CC(C5)C3)C4)cc2)cc1` [Example 13a, Adamantan-1-yl-(4-phenoxy-benzyl)-amine], with 31 to 95%; and `COc1cccc(COc2ccc(CNC34CC5CC(CC(C5)C3)C4)cc2)c1` [Example 14a, Adamantan-1-yl-[4-(3-methoxy-benzyloxy)-benzyl]-amine], with 0 to 30%; and `COc1ccccc1COc1ccc(CNC23CC4CC(CC(C4)C2)C3)cc1` [Example 15a, Adamantan-1-yl-[4-(2-methoxy-benzyloxy)-benzyl]-amine], with 0 to 30%.
Same read-out and setting: then `Clc1ccc(COc2ccc(CNC34CC5CC(CC(C5)C3)C4)cc2)cc1` [Example 16a, Adamantan-1-yl-[4-(4-chloro-benzyloxy)-benzyl]-amine], with 31 to 95%.

Still in this experiment, the particulars now being: Table 1; 100 uM; Xenopus oocytes, pH 5.5, -20 mV; read-out: S31 OOcyte Inhibition at 100 uM (%).
Take `c1ncc(CCNCC23CC4CC(CC(C4)C2)C3)[nH]1` [Example 1, Adamantan-1-ylmethyl-[2-(3H-imidazol-4-yl)-ethyl]-amine]: the inhibition at 100 µM fell in the range of 0 to 30%.
For `OCC(Cc1cnc[nH]1)NCC12CC3CC(CC(C3)C1)C2` (centres unmarked) [Example 2, 2-[(adamantan-1-ylmethyl)-amino]-3-(3H-imidazol-4-yl)-propan-1-ol], the inhibition at 100 µM lay in the range of 0 to 30%.
Take `COC(=O)C(Cc1cnc[nH]1)NCC12CC3CC(CC(C3)C1)C2` (centres unmarked) [Example 3, 2-[(Adamantan-1-ylmethyl)-amino]-3-(3H-imidazol-4-yl)-propionic acid methyl ester]: the inhibition at 100 µM is 0 to 30%.
Still for that read-out and setting: the value for `CC(NCc1ccc(O)cc1)C12CC3CC(CC(C3)C1)C2` (centres unmarked) [Example 4, 4-[(1-Adamantan-1-yl-ethylamino)-methyl]-phenol] was 31 to 95%.
The same measure, in the same setting: the value for `N=C(Nc1ccc(O)cc1)C12CC3CC(CC(C3)C1)C2` [Example 5] was 31 to 95%; that for `Oc1ccc(/C=N/C23CC4CC(CC(C4)C2)C3)cc1` [Example 6] was 31 to 95%.
As for `Oc1ccc(/C=N/C23CC4CC(CC(C4)C2)C3)c(O)c1` [Example 7], the inhibition at 100 µM was 31 to 95%.
As for `c1ccc(CNC23CC4CC(CC(C4)C2)C3)cc1` [Example 8, Adamantan-1-yl-benzyl-amine], the inhibition at 100 µM lay in the range of 31 to 95%.
Regarding `Oc1ccc(CNC23CC4CC(CC(C4)C2)C3)cc1` [Example 9, 4-(Adamantan-1-ylaminomethyl)-phenol], the inhibition at 100 µM fell in the range of 31 to 95%.
Same read-out and setting: the value for `Nc1ccc(CNC23CC4CC(CC(C4)C2)C3)cc1` [Example 11, Adamantan-1-yl-(4-amino-benzyl)-amine] was 31 to 95%; that for `CC(C)(C)OC(=O)Nc1ccc(CNC23CC4CC(CC(C4)C2)C3)cc1` [Example 12, [4-(Adamantan-1-ylaminomethyl)-phenyl]carbamic acid tert-butyl ester] was 0 to 30%.
Same read-out and setting: then `NCc1ccc(CNC23CC4CC(CC(C4)C2)C3)cc1` [Example 13, Adamantan-1-yl-(4-aminomethyl-benzyl)-amine], with 0 to 30%; and `N#Cc1ccc(CNC23CC4CC(CC(C4)C2)C3)cc1` [Example 14, 4-(Adamantan-1-ylaminomethyl)-benzonitrile], with 31 to 95%.
Regarding `c1cc(-c2nnn[nH]2)ccc1CNC12CC3CC(CC(C3)C1)C2` [Example 15, Adamantan-1-yl-[4-(1H-tetrazol-5-yl)-benzyl]amine], the inhibition at 100 µM is 0 to 30%.
Consider `COc1ccc(CNC23CC4CC(CC(C4)C2)C3)cc1` [Example 16, Adamantan-1-yl-(4-methoxy-benzyl)-amine], for which the inhibition at 100 µM fell in the range of 31 to 95%.
On the same count and under the same terms, then `CC(=O)Nc1ccc(CNC23CC4CC(CC(C4)C2)C3)cc1` [Example 17, N-[4-(Adamantan-1-ylaminomethyl)-phenyl]-acetamide], with 0 to 30%; and `NC(=O)c1ccc(CNC23CC4CC(CC(C4)C2)C3)cc1` [Example 18, 4-(Adamantan-1-ylaminomethyl)-benzamide], with 0 to 30%; and `O=[N+]([O-])c1ccc(CNC23CC4CC(CC(C4)C2)C3)cc1` [Example 19, Adamantan-1-yl-(4-nitro-benzyl)-amine], with 31 to 95%.

Staying with this experiment, now noted: Table 3; 100 uM; Xenopus oocytes, pH 5.5, -20 mV; read-out: S31 OOcyte Inhibition at 100 uM (%).
As for `Clc1ccc(CNC23CC4CC(CC(C4)C2)C3)cc1` [Example 1b, N-(4-Chlorobenzyl)adamantan-1-amine], the inhibition at 100 µM fell in the range of 31 to 95%.
Still for that read-out and setting: then `Oc1cc(I)ccc1CNC12CC3CC(CC(C3)C1)C2` [Example 2b], with 31 to 95%; and `CC(NC12CC3CC(CC(C3)C1)C2)c1ccc(C(C)(C)C)cc1` (centres unmarked) [Example 3b, N-(1-(4-(tert-butyl)phenyl)ethyl)adamantan-1-amine], with 0 to 30%.
Still for that read-out and setting: then `CC(NC12CC3CC(CC(C3)C1)C2)c1ccc(-c2ccccc2)cc1` (centres unmarked) [Example 4b, N-(1-([1,1′-biphenyl]-4-yl)ethyl)adamantan-1-amine], with 31 to 95%; and `Cc1csc(-c2ccc(CNC34CC5CC(CC(C5)C3)C4)cc2)c1` [Example 5b, N-(4-(4-Methylthiophen-2-yl)benzyl)adamantan-1-amine], with 0 to 30%; and `Oc1cc(F)ccc1CNC12CC3CC(CC(C3)C1)C2` [Example 6b], with 31 to 95%.
Same read-out and setting: the value for `Oc1cc(-c2ccco2)ccc1CNC12CC3CC(CC(C3)C1)C2` [Example 7b, 2-((-Adamantan-1-ylamino)methyl)-5-(furan-2-yl)phenol] was 0 to 30%; that for `Oc1cc(-c2ccsc2)ccc1CNC12CC3CC(CC(C3)C1)C2` [Example 8b] was 0 to 30%.
On to `Oc1cc(Cl)ccc1CNC12CC3CC(CC(C3)C1)C2` [Example 9b, 2-((-Adamantan-1-ylamino)methyl)-5-chlorophenol], for which the inhibition at 100 µM was 31 to 95%.
Same read-out and setting: the value for `Clc1nc(CNC23CC4CC(CC(C4)C2)C3)ns1` [Example 10b, N-((5-chloro-1,2,4-thiadiazol-3-yl)methyl)adamantan-1-amine] was 31 to 95%; that for `c1csc(-c2nc(CNC34CC5CC(CC(C5)C3)C4)cs2)c1` [Example 11b, N-((2-(thiophen-2-yl)thiazol-4-yl)methyl)adamantan-1-amine] was 0 to 30%.
Consider `Cc1nc(CNC23CC4CC(CC(C4)C2)C3)cs1` [Example 12b, N-((2-methylthiazol-4-yl)methyl)adamantan-1-amine], for which the inhibition at 100 µM lay in the range of 31 to 95%.
Regarding `Clc1ncc(CNC23CC4CC(CC(C4)C2)C3)s1` [Example 13b, N-((2-chlorothiazol-5-yl)methyl)adamantan-1-amine], the inhibition at 100 µM is 31 to 95%.
Take `FC(F)(F)c1nnc(CNC23CC4CC(CC(C4)C2)C3)o1` [Example 14b, N-((5-(trifluoromethyl)-1,3,4-oxadiazol-2-yl)methyl)adamantan-1-amine]: the inhibition at 100 µM was in the range of 0 to 30%.
`COc1ccccc1-c1nc(CNC23CC4CC(CC(C4)C2)C3)no1` [Example 15b, N-((5-(2-methoxyphenyl)-1,2,4-oxadiazol-3-yl)methyl)adamantan-1-amine]: the inhibition at 100 µM fell in the range of 0 to 30%.
Consider `Cc1ncc(CNC23CC4CC(CC(C4)C2)C3)s1` [Example 16b, N-((2-methylthiazol-5-yl)methyl)adamantan-1-amine], for which the inhibition at 100 µM was in the range of 0 to 30%.
Still for that read-out and setting: then `Cc1nnc(CNC23CC4CC(CC(C4)C2)C3)o1` [Example 17b, N-((5-methyl-1,3,4-oxadiazol-2-yl)methyl)adamantan-1-amine], with 0 to 30%; and `Cn1cc(CNC23CC4CC(CC(C4)C2)C3)nn1` [Example 18b, N-((1-methyl-1H-1,2,3-triazol-4-yl)methyl)adamantan-1-amine], with 0 to 30%; and `Nc1ncc(CNC23CC4CC(CC(C4)C2)C3)s1` [Example 19b], with 0 to 30%.
